Patent US10981862B2, “Physiological cooling compounds” (Symrise, Inc., priority 2015, dated 2021)

Columns and labels:
sensory panel = assay: Sensory panel evaluation of cooling ability, 20 ppm aqueous solutions; format: in vivo; design: key to Peak cooling strength / Peak Strength: —: Not cooling under tested conditions; conditions: for Longevity of cooling sensation / Time to reach peak cooling / Time period at peak cooling / Peak cooling strength / Peak Strength: 20 ppm aqueous solution; for Time period at peak cooling: cooling plateau; for Peak cooling strength: maximum cooling strength rated on a 1-10 scale; for Peak Strength: Table 4, repeats Table 2, 1-10 scale; for Cooling properties, in words: sensory panel results
Description: The new carboxamides A1-A15 and B1-B15 were evaluated for their cooling ability by a sensory panel. The evaluation included tasting the 20 ppm aqueous solutions of new carboxamides and rating their maximum cooling strength on a 1-10 scale. In addition, the time at which maximum cooling strength was reached, how long the maximum strength was observed (so called cooling plateau), and the longevity of cooling sensation were recorded. The FIGURE represents a typical cooling profile, using compound A1 as an example. The obtained results (table 2), were compared with two most commonly used commercial cooling compounds WS-3 and WS-23 which belong to the same class of N-alkyl carboxamides. While various methods exist for evaluation of cooling compounds, we have chosen the parameters that allow to assess the practical aspects of new compounds that reflect their potential value as commercial sensory ingredients.

[1] = amount of compound needed to produce a cooling sensation; cited from earlier work
[2] = Cooling strength and longevity in alcohol-free mouthwash; format: in vivo; conditions: compared with WS-5
Description: Select physiological coolants according to various embodiments were tested in an alcohol-free mouthwash and their impact was evaluated against the control (a known coolant WS-5).

[3] = Cooling strength and longevity in toothpaste; format: in vivo; conditions: compared with controls
Description: New cooling compound according to compound A2 was tested in toothpaste and its impact was evaluated against two controls (no coolant and a known coolant WS-5) and in combination with WS-5.

[4] = Cooling evaluation in hard boiled candy; format: in vivo; conditions: compared with both control samples
Description: Compound A2 was tested in hard boiled candy and evaluated against controls.

| Compound | Longevity of cooling sensation (sensory panel) [min] | Time to reach peak cooling (sensory panel) [min] | Time period at peak cooling (sensory panel) [min] | Peak cooling strength (sensory panel) | Peak Strength (sensory panel) | Threshold [1] [µg] | melting point [°C] | Cooling properties, in words (sensory panel) | Cooling effect in mouthwash, in words [2] | Cooling effect in toothpaste, in words [3] | Cooling impact in hard candy, in words [4] |
| --- | --- | --- | --- | --- | --- | --- | --- | --- | --- | --- | --- |
| CCCCCC(C)NC(=O)C1CC(C)CCC1C(C)C (centres unmarked) [Compound A11] | 15 | 8 | 2 | 2 | 2 |  |  |  |  |  |  |
| CCNC(=O)C1CC(C)CCC1C(C)C (centres unmarked) [WS-3, reference compound] | 11 | 2 | 2 | 5 |  | 0.3 |  |  |  |  |  |
| CCCCCCCCNC(=O)C(C)(C(C)C)C(C)C [Compound B12] |  |  |  | — ^a |  |  |  |  |  |  |  |
| CC(C)CC(C)NC(=O)C1CC(C)CCC1C(C)C (centres unmarked) [Compound A9] | 15 | 5 | 4 | 3 | 3 |  | 152.6 |  |  |  |  |
| CC(C)CCCC(C)NC(=O)C(C)(C(C)C)C(C)C (centres unmarked) [Compound B14] |  |  |  | — ^a |  |  | 59.4 |  |  |  |  |
| CCC(C)(C)NC(=O)C(C)(C(C)C)C(C)C [Compound B1] |  |  |  | — ^a |  |  |  | does not possess any cooling properties |  |  |  |
| CCC(CC)NC(=O)C(C)(C(C)C)C(C)C [Compound B7] | 14 | 4 | 2 | 4 |  |  | 105 |  |  |  |  |
| CCC(C)CNC(=O)C(C)(C(C)C)C(C)C (centres unmarked) [Compound B6] | 17 | 3 | 2 | 4 |  |  | 67.1 |  |  |  |  |
| CC(C)CCNC(=O)C(C)(C(C)C)C(C)C [Compound B2] | 12 | 3 | 2 | 2 |  |  | 72.2 |  |  |  |  |
| CCCCCC(C)NC(=O)C(C)(C(C)C)C(C)C (centres unmarked) [Compound B11] |  |  |  | — ^a |  |  | 46.9 |  |  |  |  |
| CC(C)CCNC(=O)C1CC(C)CCC1C(C)C (centres unmarked) [Compound A2] | 23 | 5 | 2 | 7 | 7 |  | 69.6 |  | superior long-lasting cooling effect | superior and longer lasting effect | long-lasting cooling impact |
| CC(C)CCCC(C)NC(=O)C1CC(C)CCC1C(C)C (centres unmarked) [Compound A14] |  |  |  | — ^a | —^a |  | 146.7 |  |  |  |  |
| CCC(C)(C)NC(=O)C1CC(C)CCC1C(C)C (centres unmarked) [Compound A1] | 25 | 6 | 2 | 8 | 8 |  | 133.1 | one of the most potent coolants found among the N-alkyl p-menthane carboxamides | superior long-lasting cooling effect |  |  |
| CC(C)C(C)(C(=O)NC(C)(C)CC(C)(C)C)C(C)C [Compound B15] |  |  |  | — ^a |  |  |  |  |  |  |  |
| CCCC(C)NC(=O)C(C)(C(C)C)C(C)C (centres unmarked) [Compound B5] | 15 | 2 | 3 | 6 |  |  | 98 |  |  |  |  |
| CCC(CC)NC(=O)C1CC(C)CCC1C(C)C (centres unmarked) [Compound A7] | 16 | 3 | 2 | 6 | 6 |  | 192.6 |  |  |  |  |

| Compound | Longevity of cooling sensation (sensory panel) [min] | Time to reach peak cooling (sensory panel) [min] | Time period at peak cooling (sensory panel) [min] | Peak cooling strength (sensory panel) | Peak Strength (sensory panel) | Threshold [1] [µg] | melting point [°C] | Cooling properties, in words (sensory panel) | Cooling effect in mouthwash, in words [2] | Cooling effect in toothpaste, in words [3] | Cooling impact in hard candy, in words [4] |
| --- | --- | --- | --- | --- | --- | --- | --- | --- | --- | --- | --- |
| CCCCCCNC(=O)C1CC(C)CCC1C(C)C (centres unmarked) [Compound A8] | 29 | 5 | 2 | 6 | 6 |  | 58.8 | peak cooling strength exceeds both WS-3 and A4 | superior long-lasting cooling effect |  |  |
| CCCCC(CC)CNC(=O)C(C)(C(C)C)C(C)C (centres unmarked) [Compound B13] |  |  |  | — ^a |  |  | 82.5 |  |  |  |  |
| CCCCCCNC(=O)C(C)(C(C)C)C(C)C [Compound B8] | 17 | 4 | 1 | 3 |  |  |  |  |  |  |  |
| CC1CCC(C(C)C)C(C(=O)NCC(C)(C)C)C1 (centres unmarked) [Compound A3] | 22 | 4 | 3 | 7 | 7 |  | 152.4 |  |  |  |  |
| CNC(=O)C(C)(C(C)C)C(C)C [WS-23, reference compound] | 7 | 2 | 2 | 4 |  |  |  |  |  |  |  |
| CC1CCC(C(C)C)C(C(=O)NC(C)(C)CC(C)(C)C)C1 (centres unmarked) [Compound A15] | 14 | 4 | 6 | 2 | 2 |  | 107 | only as strong as A12 and much weaker than other coolants |  |  |  |
| CC1CCC(C(C)C)C(C(=O)NC(C)C(C)C)C1 (centres unmarked) [Compound A4] | 20 | 3 | 2 | 5 | 5 |  | 160.2 |  |  |  |  |
| CC(C)CC(C)NC(=O)C(C)(C(C)C)C(C)C (centres unmarked) [Compound B9] | 18 | 4 | 2 | 5 |  |  | 83.7 |  |  |  |  |
| CC(C)C(C)(C(=O)NCC(C)(C)C)C(C)C [Compound B3] | 15 | 3 | 3 | 3 |  |  | 65.9 |  |  |  |  |
| CCCCCCCNC(=O)C1CC(C)CCC1C(C)C (centres unmarked) [Compound A10] | 19 | 4 | 1 | 5 | 5 |  |  |  |  |  |  |
| CNC(=O)C1CC(C)CCC1C(C)C (centres unmarked) [Methyl] |  |  |  |  |  | 1.1 |  |  |  |  |  |
| CCC(C)CNC(=O)C1CC(C)CCC1C(C)C (centres unmarked) [Compound A6] | 20 | 3 | 2 | 6 | 6 |  | 92.8 |  |  |  |  |
| CCCCCCCNC(=O)C(C)(C(C)C)C(C)C [Compound B10] |  |  |  | — ^a |  |  |  |  |  |  |  |
| CCCCCCCCNC(=O)C1CC(C)CCC1C(C)C (centres unmarked) [Compound A12] | 10 | 6 | 4 | 2 | 2 |  |  |  |  |  |  |
| CC(C)C(C)NC(=O)C(C)(C(C)C)C(C)C (centres unmarked) [Compound B4] | 14 | 3 | 2 | 4 |  |  | 88.4 |  |  |  |  |
